The values that follow come from patent US20130130922A1, “ANALYSIS OF METHYLATION SITES” (Centre for Addiction and Mental Health, priority 2011, published 2013).

The subject of the test is Control-Sss reference system (specific and nonspecific DNA fragments). The test is described as follows: mTAG labeling, biotinylation, capture on streptavidin beads and multiplex real-time PCR of Control-Sss reference system. The settings on record: 50 ng Control-Sss mixed with 300 ng sonicated human brain genomic DNA; 50 μM Ado-6-amine; 1450 nM enzyme; 37° C. 30 min.

Consider “SssI (Q142A/N370A): His6-tagged M.SssI C5 DNA methyltransferase (CG target site) double-alanine mutant Q142A/N370A”, for which the “level of nonspecific probe found” value is recorded as “less than 1%” and the “yield of captured specific probe containing two SssI target sites” value is ~80%.
